Patent US20240173312A1, “Pharmaceutical Composition Comprising a Benzoheterocyclic Compound and Androgen Receptor Pathway Modulator and Application Thereof” (KANGPU BIOPHARMACEUTICALS, LTD., priority 2015, published 2024)
Like-named read-outs stand apart in the source and are kept apart here.

System: Vcap cells (androgen receptor (+) prostate cancer cells)
Assay: CTG cell proliferation assay (CellTiter-Glo)
Conditions: for viability at 0.1 µM / viability at 1 µM / viability at 10 µM: Homo sapiens, VCaP, 120 h; for Cell survival rate: notes of Table 9: 1.0 μM tested compound in combination with 1.0 μM Enzalutamide
[1] = read-out: Survival rate of Vcap cells, Table 10, tested compound alone, 0.1 μM
[2] = read-out: Survival rate of Vcap cells, Table 10, tested compound alone, 1.0 μM
[3] = read-out: Survival rate of Vcap cells, Table 10, tested compound alone, 10 μM
[4] = Table 10, tested compound 0.1 μM in combination with 1 μM B001
[5] = Table 10, tested compound 1.0 μM in combination with 1 μM B001
[6] = Table 10, tested compound 10 μM in combination with 1 μM B001
[7] = read-out: Survival rate of Vcap cells, Table 4, tested compound alone, 0.1 μM
[8] = read-out: Survival rate of Vcap cells, Table 4, tested compound alone, 1 μM
[9] = read-out: Survival rate of Vcap cells, Table 4, tested compound alone, 10 μM
[10] = Table 4, tested compound alone, 1 μM
[11] = read-out: Survival rate of Vcap cells, Table 5, tested compound alone, 0.1 μM
[12] = read-out: Survival rate of Vcap cells, Table 5, tested compound alone, 1.0 μM
[13] = read-out: Survival rate of Vcap cells, Table 5, tested compound alone, 10 μM
[14] = Table 5, tested compound alone, 1.0 μM
[15] = read-out: Survival rate of Vcap cells, Table 9, tested compound alone, 0.1 μM
[16] = read-out: Survival rate of Vcap cells, Table 9, tested compound alone, 1.0 μM
[17] = read-out: Survival rate of Vcap cells, Table 9, tested compound alone, 10 μM
[18] = Table 9, tested compound 0.1 μM in combination with 1 μM ARN-509
[19] = Table 9, tested compound 0.1 μM in combination with 1 μM Enzalutamide
[20] = Table 9, tested compound 1.0 μM in combination with 1 μM ARN-509
[21] = Table 9, tested compound 1.0 μM in combination with 1 μM Enzalutamide
[22] = Table 9, tested compound 10 μM in combination with 1 μM ARN-509
[23] = Table 9, tested compound 10 μM in combination with 1 μM Enzalutamide
[24] = Table 5, tested compound 0.1 μM in combination with 1 μM ODM-201
[25] = Table 5, tested compound 1.0 μM in combination with 1 μM ODM-201
[26] = Table 5, tested compound 10 μM in combination with 1 μM ODM-201
[27] = read-out: Survival rate of Vcap cells, Table 3, tested compound alone, 0.1 μM
[28] = read-out: Survival rate of Vcap cells, Table 3, tested compound alone, 1.0 μM
[29] = read-out: Survival rate of Vcap cells, Table 3, tested compound alone, 10 μM
[30] = Table 3, tested compound 0.1 μM in combination with 1 μM ARN-509
[31] = Table 3, tested compound 0.1 μM in combination with 1 μM Enzalutamide
[32] = Table 3, tested compound 1.0 μM in combination with 1 μM ARN-509
[33] = Table 3, tested compound 1.0 μM in combination with 1 μM Enzalutamide
[34] = Table 3, tested compound 10 μM in combination with 1 μM ARN-509
[35] = Table 3, tested compound 10 μM in combination with 1 μM Enzalutamide
[36] = Table 3, tested compound alone, 1.0 μM
[37] = Table 4, tested compound 0.1 μM in combination with 1 μM Abiraterone acetate
[38] = Table 4, tested compound 0.1 μM in combination with 1 μM Galeterone
[39] = Table 4, tested compound 1 μM in combination with 1 μM Abiraterone acetate
[40] = Table 4, tested compound 1 μM in combination with 1 μM Galeterone
[41] = Table 4, tested compound 10 μM in combination with 1 μM Abiraterone acetate
[42] = Table 4, tested compound 10 μM in combination with 1 μM Galeterone
[43] = Table 10, tested compound 0.1 μM in combination with 1 μM K001
[44] = Table 10, tested compound 1.0 μM in combination with 1 μM K001
[45] = Table 10, tested compound 10 μM in combination with 1 μM K001

Experimental: In vitro test of the inhibition effect of the compound in combination with androgen receptor pathway modulators and the like on the prostate cancer cell proliferation.
The tested compounds were used alone or in combination with other androgen receptor pathway modulators respectively. […] After that, 100 μl of CellTiter-Glo® cell viability assay reagent (Promega, catalogue number G7570) was added to each well and mixed well on a vibrator for 10 minutes to induce cell lysis. The 96-well plate was placed at room temperature for 10 minutes, so as to stabilize its luminescence signal. A white bottom membrane was pasted on the bottom of the plate and the plate was tested using EnSpire.

SMILES: C[C@]12CC[C@H](O)CC1=CC[C@@H]1[C@@H]2CC[C@]2(C)C(c3cccnc3)=CC[C@@H]12 [Abiraterone, reference compound]
- viability at 0.1 µM [1]: 98.5%
- viability at 1 µM [2]: 92.4%
- viability at 10 µM [3]: 81.9%
- Survival rate of Vcap cells [4]: 78.9%
- Survival rate of Vcap cells [5]: 74.9%
- Survival rate of Vcap cells [6]: 66.3%

SMILES: CC(=O)O[C@H]1CC[C@@]2(C)C(=CC[C@@H]3[C@@H]2CC[C@]2(C)C(c4cccnc4)=CC[C@@H]32)C1 [Abiraterone acetate, reference compound]
- viability at 0.1 µM [7]: 106%
- viability at 1 µM [8]: 91.7%
- viability at 10 µM [9]: 31.4%
- viability at 0.1 µM [1]: 96.1%
- viability at 1 µM [2]: 97%
- viability at 10 µM [3]: 60.5%
- Survival rate of Vcap cells [10]: 91.7%
- Survival rate of Vcap cells [4]: 79.8%
- Survival rate of Vcap cells [5]: 70.5%
- Survival rate of Vcap cells [6]: 66.9%

SMILES: CC(O)c1cc(C(=O)N[C@@H](C)Cn2ccc(-c3ccc(C#N)c(Cl)c3)n2)[nH]n1 (stereo partly drawn) [ODM-201, reference compound]
- viability at 0.1 µM [11]: 90.7%
- viability at 1 µM [12]: 69%
- viability at 10 µM [13]: 75.4%
- Survival rate of Vcap cells [14]: 69.0%

SMILES: [2H][C@]1(N2Cc3c(N)cccc3C2=O)CCC(=O)NC1=O [B005]
- viability at 0.1 µM [15]: 91.1%
- viability at 1 µM [16]: 85%
- viability at 10 µM [17]: 83.5%
- Survival rate of Vcap cells [18]: 53.4%
- Survival rate of Vcap cells [19]: 56.5%
- Survival rate of Vcap cells [20]: 47.6%
- Survival rate of Vcap cells [21]: 48.4%
- Survival rate of Vcap cells [22]: 46.2%
- Survival rate of Vcap cells [23]: 46.5%
- Cell survival rate: 47.6%

SMILES: Nc1cccc2c1C(=O)N(C1CCC(=O)NC1=O)C2=O (stereo not drawn) [F001]
- viability at 0.1 µM [11]: 79.7%
- viability at 1 µM [12]: 59.9%
- viability at 10 µM [13]: 55.7%
- Survival rate of Vcap cells [24]: 49.4%
- Survival rate of Vcap cells [25]: 40.9%
- Survival rate of Vcap cells [26]: 37.3%
- Survival rate of Vcap cells [14]: 59.9%

SMILES: O=C1CCC(N2Cc3c(OCc4ccc(CN5CCOCC5)cc4)cccc3C2=O)C(=O)N1 (stereo not drawn) [D107]
- viability at 0.1 µM [27]: 85.3%
- viability at 1 µM [28]: 77.2%
- viability at 10 µM [29]: 69.3%
- viability at 0.1 µM [7]: 85.3%
- viability at 1 µM [8]: 77.2%
- viability at 10 µM [9]: 69.3%
- Survival rate of Vcap cells [30]: 37.0%
- Survival rate of Vcap cells [31]: 37.3%
- Survival rate of Vcap cells [32]: 36.3%
- Survival rate of Vcap cells [33]: 35.0%
- Survival rate of Vcap cells [34]: 34.2%
- Survival rate of Vcap cells [35]: 32.3%
- Survival rate of Vcap cells [36]: 77.2%
- Survival rate of Vcap cells [37]: 66.0%
- Survival rate of Vcap cells [38]: 43.9%
- Survival rate of Vcap cells [39]: 61.7%
- Survival rate of Vcap cells [40]: 42.4%
- Survival rate of Vcap cells [41]: 59.6%
- Survival rate of Vcap cells [42]: 40.0%
- Survival rate of Vcap cells [10]: 77.2%

SMILES: C[C@](O)(COc1ccc(C#N)cc1)C(=O)Nc1ccc(C#N)c(C(F)(F)F)c1 [MK-2866, reference compound]
- viability at 0.1 µM [1]: 76.5%
- viability at 1 µM [2]: 77.4%
- viability at 10 µM [3]: 69.4%
- Survival rate of Vcap cells [4]: 64.8%
- Survival rate of Vcap cells [5]: 65.6%
- Survival rate of Vcap cells [6]: 57.8%

SMILES: Nc1cccc2c1CN([C@H]1CCC(=O)NC1=O)C2=O [B002]
- viability at 0.1 µM [15]: 85.6%
- viability at 1 µM [16]: 79.8%
- viability at 10 µM [17]: 75.9%
- Survival rate of Vcap cells [18]: 52.5%
- Survival rate of Vcap cells [19]: 53.9%
- Survival rate of Vcap cells [20]: 44.7%
- Survival rate of Vcap cells [21]: 44.7%
- Survival rate of Vcap cells [22]: 44.3%
- Survival rate of Vcap cells [23]: 43.1%
- Cell survival rate: 44.7%

SMILES: Nc1cccc2c1CN([C@@H]1CCC(=O)NC1=O)C2=O [B003]
- viability at 0.1 µM [15]: 83.7%
- viability at 1 µM [16]: 81.3%
- viability at 10 µM [17]: 80.4%
- Survival rate of Vcap cells [18]: 54.0%
- Survival rate of Vcap cells [20]: 46.5%
- Survival rate of Vcap cells [21]: 45.4%
- Survival rate of Vcap cells [22]: 42.4%
- Survival rate of Vcap cells [23]: 44.2%

SMILES: C[C@]12CC[C@H](O)CC1=CC[C@@H]1[C@@H]2CC[C@]2(C)C(n3cnc4ccccc43)=CC[C@@H]12 [Galeterone, reference compound]
- Survival rate of Vcap cells (Table 4, tested compound alone, 0.1 μM): 95.9%
- Survival rate of Vcap cells [10]: 62.8%
- Survival rate of Vcap cells (Table 4, tested compound alone, 10 μM): 19.3%

SMILES: Cc1nc2cccc(N)c2c(=O)n1C1CCC(=O)NC1=O (stereo not drawn) [K001]
- viability at 0.1 µM [27]: 85.1%
- viability at 1 µM [28]: 65.8%
- viability at 10 µM [29]: 61.4%
- viability at 0.1 µM [7]: 85.1%
- viability at 1 µM [8]: 65.8%
- viability at 10 µM [9]: 61.4%
- viability at 0.1 µM [11]: 79.2%
- viability at 1 µM [12]: 59.7%
- viability at 10 µM [13]: 51%
- viability at 0.1 µM [1]: 91.2%
- viability at 1 µM [2]: 73.8%
- viability at 10 µM [3]: 66.1%
- Survival rate of Vcap cells [30]: 43.6%
- Survival rate of Vcap cells [31]: 42.4%
- Survival rate of Vcap cells [32]: 36.0%
- Survival rate of Vcap cells [33]: 36.4%
- Survival rate of Vcap cells [34]: 33.5%
- Survival rate of Vcap cells [35]: 35.1%
- Survival rate of Vcap cells [36]: 65.8%
- Survival rate of Vcap cells [37]: 70.4%
- Survival rate of Vcap cells [38]: 49.1%
- Survival rate of Vcap cells [39]: 53.1%
- Survival rate of Vcap cells [40]: 41.3%
- Survival rate of Vcap cells [41]: 48.1%
- Survival rate of Vcap cells [42]: 39.4%
- Survival rate of Vcap cells [10]: 65.8%
- Survival rate of Vcap cells [24]: 53.5%
- Survival rate of Vcap cells [25]: 40.4%
- Survival rate of Vcap cells [26]: 35.2%
- Survival rate of Vcap cells [14]: 59.7%

SMILES: [2H]C1(N2Cc3c(N)cccc3C2=O)CCC(=O)NC1=O (stereo not drawn) [B004]
- viability at 0.1 µM [15]: 94.1%
- viability at 1 µM [16]: 88.4%
- viability at 10 µM [17]: 88%
- Survival rate of Vcap cells [18]: 59.1%
- Survival rate of Vcap cells [19]: 60.4%
- Survival rate of Vcap cells [20]: 51.2%
- Survival rate of Vcap cells [21]: 50.8%
- Survival rate of Vcap cells [22]: 48.0%
- Survival rate of Vcap cells [23]: 51.1%
- Cell survival rate: 51.2%

SMILES: CC(O)(CS(=O)(=O)c1ccc(F)cc1)C(=O)Nc1ccc(C#N)c(C(F)(F)F)c1 (stereo not drawn) [bicalutamide, reference compound]
- viability at 0.1 µM [1]: 99.2%
- viability at 1 µM [2]: 94%
- viability at 10 µM [3]: 92%
- Survival rate of Vcap cells [4]: 77.1%
- Survival rate of Vcap cells [43]: 78.7%
- Survival rate of Vcap cells [5]: 69.0%
- Survival rate of Vcap cells [44]: 64.1%
- Survival rate of Vcap cells [6]: 67.1%
- Survival rate of Vcap cells [45]: 61.5%

SMILES: O=C1CC[C@H](N2Cc3c(OCc4ccc(CN5CCOCC5)cc4)cccc3C2=O)C(=O)N1 [D108]
- viability at 0.1 µM [11]: 73%
- viability at 1 µM [12]: 67.3%
- viability at 10 µM [13]: 58.5%
- Survival rate of Vcap cells [24]: 42.7%
- Survival rate of Vcap cells [25]: 40.1%
- Survival rate of Vcap cells [26]: 32.8%
- Survival rate of Vcap cells [14]: 67.3%

SMILES: C[C@]12C=CC(=O)C=C1CC[C@@H]1[C@@H]2C(=O)C[C@@]2(C)[C@H]1CC[C@]2(O)C(=O)CO [Prednisone, reference compound]
- viability at 0.1 µM [1]: 99.1%
- viability at 1 µM [2]: 99.7%
- viability at 10 µM [3]: 99.4%
- Survival rate of Vcap cells [4]: 87.6%
- Survival rate of Vcap cells [43]: 91.5%
- Survival rate of Vcap cells [5]: 78.7%
- Survival rate of Vcap cells [44]: 74.2%
- Survival rate of Vcap cells [6]: 73.8%
- Survival rate of Vcap cells [45]: 68.0%

SMILES: [2H][C@@]1(N2Cc3c(N)cccc3C2=O)CCC(=O)NC1=O [B006]
- viability at 0.1 µM [15]: 91.7%
- viability at 1 µM [16]: 89.7%
- viability at 10 µM [17]: 85.7%
- Survival rate of Vcap cells [18]: 63.2%
- Survival rate of Vcap cells [19]: 61.2%
- Survival rate of Vcap cells [20]: 51.7%
- Survival rate of Vcap cells [21]: 50.5%
- Survival rate of Vcap cells [22]: 45.0%
- Survival rate of Vcap cells [23]: 48.3%
- Cell survival rate: 51.7%
